In the assay the test system is viable spores of Geobacillus stearothermophilus. The conditions noted are these: for growth results for biological indicators: dose 8 mL, seven BIs, seven-day incubation, no growth = 6-Log CFU reduction. On the procedure: In general, for each of the experiments, a respective amount of gas is circulated in a chamber interior containing Bls (in these experiments, seven Bls) for a respective amount of time. Then, after removing the gas from the chamber interior, the Bls are tested to determine whether the desired CFU reduction was achieved.
One example method of determining whether the desired CFU reduction was achieved is by removing the Bls from the chamber interior after circulating a particular amount of gas for a particular amount of time, and incubating the Bls in a growth-promoting medium for seven days.
In this example, the seven Bls of FIG. 3 may be in one or more locations in the chamber interior (e.g., with at least some in locations that are relatively difficult to decontaminate in the chamber interior). The Bls may be inoculated with viable spores of Geobacillus stearothermophilus, for example, or another suitable type of thermophile bacteria. The D-value of the Bls may be provided by the manufacturer of the Bls and may be, for example, 0.25 minutes, 0.5 minutes, 1 minutes, 1.5 minutes, 2 minutes, 2.5 minutes, or any other suitable D-value.

Read-outs that look alike come from different tables or passages of the source.

Consider `OO` [gas, hydrogen peroxide], for which the “growth-no growth behavior with respect to time” value (10 mL amount of gas compared with 8 mL amount of gas) is listed as “identical”. The “growth results for biological indicators” value (gas circulated for 100 seconds) was “all but one BI (BI #4) achieving no growth”, the “growth results for biological indicators” value (gas circulated for 300 seconds) is on record as “no growth for all seven Bls” and the “growth results for biological indicators” value (gas circulated for 500 seconds) is recorded as “no growth for all seven Bls”.

These data come from patent publication US20250064064A1, “METHODS FOR DESIGNING AND […] VAPOR PHASE HYDROGEN PEROXIDE DECON[…]” (Amgen Inc., priority 2021, published 2025).
